Experimental data published in patent US10517889B2, “Modulators of SMAD7 expression” (Ionis Pharmaceuticals, Inc., priority 2017, dated 2019).

Experiments:
[1] = Oligonucleotide concentration in tissues by LC-MS/MS after subcutaneous administration in beagle dogs (Example 8); format: in vivo; conditions: 30 mg/kg subcutaneous, 48 hours after the last dose
Method: (§1) There were 4 animals per group.
Oligonucleotide concentrations of both ION 830025 and ION 798781 were detected in various tissues by LC-MS/MS analysis. The results are presented below, expressed as μg/g tissue. The data was collected 48 hours after the last dose.

[2] = Blood chemistry markers after oral gavage in CD-1 mice (Example 7); format: in vivo; conditions: 500 mg/kg oral gavage once daily for 4 weeks, day 30
Method: The objective of this study was to evaluate the tolerability and pharmacodynamics of select Ionis human SMAD7 antisense oligonucleotides in CD-1 mice following 4 weeks of treatment. The mice were administered oligonucleotides by oral gavage.
(§2) Groups of 7-8 week old male CD-1 mice were given an oral gavage dose once daily for 4 weeks of 500 mg/kg of Ionis SMAD7 oligonucleotides. Each group contained 8 mice. One group of male CD-1 mice was administered saline by oral gavage daily.
Levels of transaminases, albumin, and BUN were measured using a Toshiba 200FR NEO chemistry analyzer (Toshiba Co., Japan).

[3] = test system: human peripheral blood mononuclear cells (PBMCs); experiment: Human PBMC activation assay, cytokine levels (IL-10, IL-6, MCP-1, TNF-α) in supernatant after 24 hours (Example 9); conditions: human PBMC supernatant after 24 hours
dog SMAD7 mRNA = experiment: Pharmacology: dog SMAD7 mRNA expression in liver, kidney, duodenum, ileum and colon after subcutaneous administration in beagle dogs (Example 8); format: in vivo; conditions: 30 mg/kg subcutaneous, necropsy, normalized to HPRT1
Method: as §1
The pharmacological activity of the Ionis oligonucleotides in dogs was assessed by measuring dog SMAD7 mRNA expression in liver, kidney, duodenum, ileum, and colon at necropsy. All the human ASOs used are complementary to dog SMAD7 mRNA.
Tissue samples from all dogs were analyzed for SMAD7 mRNA expression using the primer probe set RTS34649 (forward sequence […], designated SEQ ID NO: 2740; reverse sequence […], designated SEQ ID NO: 2741; probe sequence […], designated SEQ ID NO: 2742), which was normalized to mRNA levels of the housekeeping gene, HPRT1. One-way ANOVA with Dunnet's comparison test was used for statistical analysis.

[4] = Hematology assays after oral gavage in CD-1 mice (Example 7); format: in vivo; parameters: RBC: unit not given here; conditions: 500 mg/kg oral gavage once daily for 4 weeks
Method: as §2
Blood obtained from all mouse groups was measured by an ADVIA2120i hematology analyzer (Siemens, USA) for measurements of the various blood cells, as well as other hematology markers. None of the Ionis SMAD7 oligonucleotides caused changes in the levels of any of the hematology markers outside the expected range for antisense oligonucleotides.

[5] = Hematology assays after subcutaneous administration in beagle dogs (Example 8); format: in vivo; conditions: 30 mg/kg subcutaneous days 1, 3, 5, 8, 15, 22, 29
Method: as §1
Blood samples were collected from the cephalic vein or saphenous vein of each animal. About 0.5 mL of blood samples was put into tubes containing the potassium salt of EDTA. Blood obtained from all dog groups was measured using an ADVIA2120i hematology analyzer for measurements of the various blood cells, as well as other hematology markers.

[6] = Oligonucleotide concentration in liver and colon by LC-MS/MS after subcutaneous administration in CD-1 mice (Example 6); format: in vivo; conditions: 50 mg/kg subcutaneously twice a week for 7 weeks, 48 hours after the last dose
Method: Groups of 8-9 week old male CD-1 mice were injected subcutaneously twice a week for 7 weeks with 50 mg/kg of Ionis oligonucleotides (100 mg/kg/week dose). Each group contained 4 mice. One group of male CD-1 mice was injected subcutaneously twice a week for 7 weeks with PBS. Plasma was collected for analysis on day 28.
Oligonucleotide concentrations in the liver and colon were analyzed using LC-MS/MS method.

830037 (antisense CTATTGGCTGATCTGG; 3-10-3 cEt gapmer, further chemistry not given here) [compound 830037]
Full length oligonucleotide, Distal colon [1]: 46 µg/g
Full length oligonucleotide, Duodenum [1]: 55 µg/g
Full length oligonucleotide, Ileum [1]: 67 µg/g
Full length oligonucleotide, Kidney [1]: 894 µg/g
Full length oligonucleotide, Liver [1]: 521 µg/g
Full length oligonucleotide, Proximal colon [1]: 86 µg/g
ALT [2]: 62 IU/L
AST [2]: 94 IU/L
Albumin [2]: 3.3 g/dL
BUN [2]: 26 mg/dL
Bilirubin [2]: 0.3 mg/dL
Levels of IL-6 ([3]; 0.0128 μM oligonucleotide): 3.8 pg/mL
Levels of IL-10 ([3]; 0.0128 μM oligonucleotide): 1.6 pg/mL
Levels of MCP-1 ([3]; 0.0128 μM oligonucleotide): 369.4 pg/mL
Levels of TNF-α ([3]; 0.0128 μM oligonucleotide): 3.2 pg/mL
Levels of IL-6 ([3]; 0.064 μM oligonucleotide): 9.8 pg/mL
Levels of IL-10 ([3]; 0.064 μM oligonucleotide): 3.2 pg/mL
Levels of MCP-1 ([3]; 0.064 μM oligonucleotide): 557.1 pg/mL
Levels of TNF-α ([3]; 0.064 μM oligonucleotide): 4.1 pg/mL
Levels of IL-6 ([3]; 0.32 μM oligonucleotide): 26.7 pg/mL
Levels of IL-10 ([3]; 0.32 μM oligonucleotide): 8.2 pg/mL
Levels of MCP-1 ([3]; 0.32 μM oligonucleotide): 1284.2 pg/mL
Levels of TNF-α ([3]; 0.32 μM oligonucleotide): 8.2 pg/mL
Levels of IL-6 ([3]; 1.6 μM oligonucleotide): 38.6 pg/mL
Levels of IL-10 ([3]; 1.6 μM oligonucleotide): 9.5 pg/mL
Levels of MCP-1 ([3]; 1.6 μM oligonucleotide): 1085.9 pg/mL
Levels of TNF-α ([3]; 1.6 μM oligonucleotide): 9.2 pg/mL
Levels of IL-6 ([3]; 8 μM oligonucleotide): 38.4 pg/mL
Levels of IL-10 ([3]; 8 μM oligonucleotide): 7.1 pg/mL
Levels of MCP-1 ([3]; 8 μM oligonucleotide): 1917.1 pg/mL
Levels of TNF-α ([3]; 8 μM oligonucleotide): 11.1 pg/mL
Levels of IL-6 ([3]; 40 μM oligonucleotide): 58.7 pg/mL
Levels of IL-10 ([3]; 40 μM oligonucleotide): 4.7 pg/mL
Levels of MCP-1 ([3]; 40 μM oligonucleotide): 3414.8 pg/mL
Levels of TNF-α ([3]; 40 μM oligonucleotide): 16.6 pg/mL
Levels of IL-6 ([3]; 200 μM oligonucleotide): 71.2 pg/mL
Levels of IL-10 ([3]; 200 μM oligonucleotide): 3.8 pg/mL
Levels of MCP-1 ([3]; 200 μM oligonucleotide): 2449.3 pg/mL
Levels of TNF-α ([3]; 200 μM oligonucleotide): 18.9 pg/mL
% inhibition of SMAD7 mRNA expression (compared to control), Distal colon (dog SMAD7 mRNA): 22%
% inhibition of SMAD7 mRNA expression (compared to control), Duodenum (dog SMAD7 mRNA): 33%
% inhibition of SMAD7 mRNA expression (compared to control), Ileum (dog SMAD7 mRNA): 22%
% inhibition of Smad7 mRNA expression (compared to control), Kidney (dog SMAD7 mRNA): 40%
% inhibition of Smad7 mRNA expression (compared to control), Liver (dog SMAD7 mRNA): 0%
% inhibition of SMAD7 mRNA expression (compared to control), Proximal colon (dog SMAD7 mRNA): 50%
Basophils [4]: 0.01 10^3/μL
Eosinophils [4]: 0.15 10^3/μL
Hematocrit [4]: 53.4%
Hemoglobin [4]: 15.4 g/dL
Lymphocytes [4]: 73.2%
MCH [4]: 15.4 pg
MCHC [4]: 28.9 g/dL
MCV [4]: 53.2 fL
Monocytes [4]: 0.13 10^3/μL
Neutrophils [4]: 19.3%
RBC [4]: 10.1
Reticulocytes [4]: 3.1%
WBC [4]: 4.3 10^3/μL
platelets [4]: 1122 10^3/μL
Basophils [5]: 0.7%
Eosinophils [5]: 2.6%
Hematocrit [5]: 52%
Hemoglobin [5]: 17.5 g/dL
Lymphocytes [5]: 32%
MCH [5]: 22.1 pg
MCHC [5]: 33.6 g/dL
MCV [5]: 66 fL
Monocytes [5]: 8.0%
Neutrophils [5]: 57%
PLT [5]: 280 ^3/μL
RBC [5]: 8.0 ^6/L
Reticulocytes [5]: 0.3%
WBC [5]: 8.5 ^3/μL
Oligonucleotide concentration, Colon [6]: 24 μg/g tissue
Oligonucleotide concentration, Liver [6]: 97 μg/g tissue

830121 (AGAATCAAGCCCTGGC; 3-10-3 cEt gapmer, further chemistry not given here) [compound 830121]
Full length oligonucleotide, Distal colon [1]: 20 µg/g
Full length oligonucleotide, Duodenum [1]: 26 µg/g
Full length oligonucleotide, Ileum [1]: 26 µg/g
Full length oligonucleotide, Kidney [1]: 1468 µg/g
Full length oligonucleotide, Liver [1]: 443 µg/g
Full length oligonucleotide, Proximal colon [1]: 19 µg/g
ALT [2]: 45 IU/L
AST [2]: 75 IU/L
Albumin [2]: 3.3 g/dL
BUN [2]: 24 mg/dL
Bilirubin [2]: 0.2 mg/dL
Levels of IL-6 ([3]; 0.0128 μM oligonucleotide): 4.1 pg/mL
Levels of IL-10 ([3]; 0.0128 μM oligonucleotide): 2.0 pg/mL
Levels of MCP-1 ([3]; 0.0128 μM oligonucleotide): 324.5 pg/mL
Levels of TNF-α ([3]; 0.0128 μM oligonucleotide): 3.0 pg/mL
Levels of IL-6 ([3]; 0.064 μM oligonucleotide): 4.9 pg/mL
Levels of IL-10 ([3]; 0.064 μM oligonucleotide): 1.3 pg/mL
Levels of MCP-1 ([3]; 0.064 μM oligonucleotide): 370.4 pg/mL
Levels of TNF-α ([3]; 0.064 μM oligonucleotide): 3.5 pg/mL
Levels of IL-6 ([3]; 0.32 μM oligonucleotide): 4.4 pg/mL
Levels of IL-10 ([3]; 0.32 μM oligonucleotide): 1.3 pg/mL
Levels of MCP-1 ([3]; 0.32 μM oligonucleotide): 336.4 pg/mL
Levels of TNF-α ([3]; 0.32 μM oligonucleotide): 3.1 pg/mL
Levels of IL-6 ([3]; 1.6 μM oligonucleotide): 5.4 pg/mL
Levels of IL-10 ([3]; 1.6 μM oligonucleotide): 3.1 pg/mL
Levels of MCP-1 ([3]; 1.6 μM oligonucleotide): 501.8 pg/mL
Levels of TNF-α ([3]; 1.6 μM oligonucleotide): 3.6 pg/mL
Levels of IL-6 ([3]; 8 μM oligonucleotide): 7.5 pg/mL
Levels of IL-10 ([3]; 8 μM oligonucleotide): 3.7 pg/mL
Levels of MCP-1 ([3]; 8 μM oligonucleotide): 717.1 pg/mL
Levels of TNF-α ([3]; 8 μM oligonucleotide): 4.8 pg/mL
Levels of IL-6 ([3]; 40 μM oligonucleotide): 14.3 pg/mL
Levels of IL-10 ([3]; 40 μM oligonucleotide): 2.2 pg/mL
Levels of MCP-1 ([3]; 40 μM oligonucleotide): 1225.2 pg/mL
Levels of TNF-α ([3]; 40 μM oligonucleotide): 9.4 pg/mL
Levels of IL-6 ([3]; 200 μM oligonucleotide): 35.2 pg/mL
Levels of IL-10 ([3]; 200 μM oligonucleotide): 1.4 pg/mL
Levels of MCP-1 ([3]; 200 μM oligonucleotide): 411.0 pg/mL
Levels of TNF-α ([3]; 200 μM oligonucleotide): 14.2 pg/mL
% inhibition of SMAD7 mRNA expression (compared to control), Distal colon (dog SMAD7 mRNA): 21%
% inhibition of SMAD7 mRNA expression (compared to control), Duodenum (dog SMAD7 mRNA): 55%
% inhibition of SMAD7 mRNA expression (compared to control), Ileum (dog SMAD7 mRNA): 0%
% inhibition of Smad7 mRNA expression (compared to control), Kidney (dog SMAD7 mRNA): 39%
% inhibition of Smad7 mRNA expression (compared to control), Liver (dog SMAD7 mRNA): 0%
% inhibition of SMAD7 mRNA expression (compared to control), Proximal colon (dog SMAD7 mRNA): 20%
Basophils [4]: 0.01 10^3/μL
Eosinophils [4]: 0.08 10^3/μL
Hematocrit [4]: 51.8%
Hemoglobin [4]: 15.1 g/dL
Lymphocytes [4]: 81.7%
MCH [4]: 15.0 pg
MCHC [4]: 29.1 g/dL
MCV [4]: 51.6 fL
Monocytes [4]: 0.15 10^3/μL
Neutrophils [4]: 11.6%
RBC [4]: 10.0
Reticulocytes [4]: 3.0%
WBC [4]: 4.1 10^3/μL
platelets [4]: 1170 10^3/μL
Basophils [5]: 0.8%
Eosinophils [5]: 2.5%
Hematocrit [5]: 56%
Hemoglobin [5]: 18.5 g/dL
Lymphocytes [5]: 30%
MCH [5]: 21.7 pg
MCHC [5]: 32.9 g/dL
MCV [5]: 66 fL
Monocytes [5]: 7.7%
Neutrophils [5]: 59%
PLT [5]: 249 ^3/μL
RBC [5]: 8.5 ^6/L
Reticulocytes [5]: 0.5%
WBC [5]: 8.2 ^3/μL
Oligonucleotide concentration, Colon [6]: 14 μg/g tissue
Oligonucleotide concentration, Liver [6]: 50 μg/g tissue
